Experimental data from PubChem BioAssay AID248 (DTP/NCI, 2004).
Several values for one entry are separate records, joined by “and”; a condition that tells them apart may be missing. Equal entries are not always repeated. Toxic doses and inconclusive results are not listed.

Tested on: L1210 leukemia ip in BDF1 mice, survival T/C
Experiment: NCI In Vivo Anticancer Drug Screen. Data for tumor model L1210 Leukemia (intraperitoneal) in B6D2F1 (BDF1) mice
Details: higher = longer survival
In short: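 Ratio derived from survival: compound-dosed mice over vehicle-dosed mice, all bearing a transplantable tumor.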

[1] = endpoint: mean survival time, dose: 100.0 mg/kg/injection, schedule: Q01DX009 (ip), vehicle: Klucel (hydroxypropylcellulose) (HPC)
[2] = endpoint: mean survival time, dose: 200.0 mg/kg/injection, schedule: Q01DX009 (ip), vehicle: Klucel (hydroxypropylcellulose) (HPC)
[3] = endpoint: mean survival time, dose: 400.0 mg/kg/injection, schedule: Q01DX009 (ip), vehicle: Klucel (hydroxypropylcellulose) (HPC)
[4] = endpoint: mean survival time, dose: 100.0 mg/kg/injection, schedule: Q04DX003 (ip), vehicle: Klucel (hydroxypropylcellulose) (HPC)
[5] = endpoint: mean survival time, dose: 200.0 mg/kg/injection, schedule: Q04DX003 (ip), vehicle: Klucel (hydroxypropylcellulose) (HPC)
[6] = endpoint: mean survival time, dose: 100.0 mg/kg/injection, schedule: Q01DX001 (ip), vehicle: saline
[7] = endpoint: mean survival time, dose: 200.0 mg/kg/injection, schedule: Q01DX001 (ip), vehicle: saline

NC(=O)N(CCCl)N=O
T/C (endpoint: mean survival time, dose: 0.06 mg/kg/injection, schedule: Q#A X Z (oral), vehicle: saline): 123 % of control | T/C (endpoint: mean survival time, dose: 0.12 mg/kg/injection, schedule: Q01DX010 (iv), vehicle: saline): 98 % of control | T/C (endpoint: mean survival time, dose: 0.13 mg/kg/injection, schedule: Q01DX Z (oral), vehicle: saline): 118 % of control | T/C (endpoint: mean survival time, dose: 0.19 mg/kg/injection, schedule: Q03DX Z (oral), vehicle: saline): 112 % of control | T/C (endpoint: mean survival time, dose: 0.2 mg/kg/injection, schedule: Q01DX Z (sc), vehicle: methylcellulose (MC)): 101 % of control | T/C (endpoint: mean survival time, dose: 0.25 mg/kg/injection, schedule: Q01DX010 (iv), vehicle: saline): 118 % of control | T/C (endpoint: mean survival time, dose: 0.25 mg/kg/injection, schedule: Q01DX Z (oral), vehicle: saline): 182 % of control | T/C (endpoint: mean survival time, dose: 0.25 mg/kg/injection, schedule: Q#A X Z (oral), vehicle: saline): 255 % of control | T/C (endpoint: mean survival time, dose: 0.38 mg/kg/injection, schedule: Q03DX Z (oral), vehicle: saline): 121 % of control | T/C (endpoint: mean survival time, dose: 0.4 mg/kg/injection, schedule: Q01DX Z (ip), vehicle: carboxymethylcellulose (CMC)): 157 % of control and 201 % of control | T/C (endpoint: mean survival time, dose: 0.4 mg/kg/injection, schedule: Q01DX Z (ip), vehicle: methylcellulose (MC)): 151 % of control | T/C (endpoint: mean survival time, dose: 0.4 mg/kg/injection, schedule: Q01DX Z (sc), vehicle: methylcellulose (MC)): 98 % of control and 101 % of control | T/C (endpoint: mean survival time, dose: 0.44 mg/kg/injection, schedule: Q07DX Z (oral), vehicle: saline): 105 % of control | T/C (endpoint: mean survival time, dose: 0.5 mg/kg/injection, schedule: Q01DX009 (ip), vehicle: saline): 159 % of control and 163 % of control and 176 % of control | T/C (endpoint: mean survival time, dose: 0.5 mg/kg/injection, schedule: Q01DX Z (oral), vehicle: saline): 266 % of control | T/C (endpoint: mean survival time, dose: 0.6 mg/kg/injection, schedule: Q01DX Z (ip), vehicle: carboxymethylcellulose (CMC)): 170 % of control and 197 % of control | T/C (endpoint: mean survival time, dose: 0.6 mg/kg/injection, schedule: Q01DX Z (ip), vehicle: methylcellulose (MC)): 166 % of control and 171 % of control | T/C (endpoint: mean survival time, dose: 0.6 mg/kg/injection, schedule: Q01DX Z (sc), vehicle: methylcellulose (MC)): 98 % of control and 101 % of control | T/C (endpoint: mean survival time, dose: 0.88 mg/kg/injection, schedule: Q07DX Z (oral), vehicle: saline): 124 % of control | T/C (endpoint: mean survival time, dose: 0.9 mg/kg/injection, schedule: Q01DX Z (ip), vehicle: carboxymethylcellulose (CMC)): 205 % of control and 257 % of control | T/C (endpoint: mean survival time, dose: 0.9 mg/kg/injection, schedule: Q01DX Z (ip), vehicle: methylcellulose (MC)): 181 % of control and 250 % of control | T/C (endpoint: mean survival time, dose: 0.9 mg/kg/injection, schedule: Q01DX Z (oral), vehicle: carboxymethylcellulose (CMC)): 117 % of control | T/C (endpoint: mean survival time, dose: 0.9 mg/kg/injection, schedule: Q01DX Z (sc), vehicle: methylcellulose (MC)): 98 % of control and 101 % of control | T/C (endpoint: mean survival time, dose: 1.0 mg/kg/injection, schedule: Q01DX009 (ip), vehicle: saline): 202 % of control and 222 % of control and 253 % of control | T/C (endpoint: mean survival time, dose: 1.0 mg/kg/injection, schedule: Q01DX010 (iv), vehicle: saline): 215 % of control | T/C (endpoint: mean survival time, dose: 1.35 mg/kg/injection, schedule: Q01DX Z (ip), vehicle: carboxymethylcellulose (CMC)): 176 % of control and 227 % of control | T/C (endpoint: mean survival time, dose: 1.5 mg/kg/injection, schedule: Q03DX Z (oral), vehicle: saline): 234 % of control | T/C (endpoint: mean survival time, dose: 1.6 mg/kg/injection, schedule: Q01DX Z (oral), vehicle: methylcellulose (MC)): 167 % of control | T/C (endpoint: mean survival time, dose: 1.75 mg/kg/injection, schedule: Q07DX Z (oral), vehicle: saline): 178 % of control | T/C (endpoint: mean survival time, dose: 1.8 mg/kg/injection, schedule: Q01DX Z (oral), vehicle: carboxymethylcellulose (CMC)): 102 % of control and 117 % of control | T/C (endpoint: mean survival time, dose: 2.0 mg/kg/injection, schedule: Q01DX009 (ip), vehicle: saline): 219 % of control and 317 % of control and 319 % of control | T/C (endpoint: mean survival time, dose: 2.0 mg/kg/injection, schedule: Q01DX010 (iv), vehicle: saline): 123 % of control | T/C (endpoint: mean survival time, dose: 3.5 mg/kg/injection, schedule: Q01DX Z (oral), vehicle: carboxymethylcellulose (CMC)): 114 % of control | T/C (endpoint: mean survival time, dose: 3.5 mg/kg/injection, schedule: Q07DX Z (oral), vehicle: saline): 266 % of control | T/C (endpoint: mean survival time, dose: 3.6 mg/kg/injection, schedule: Q01DX001 (ip), vehicle: saline): 239 % of control and 271 % of control and 91 % of control | T/C (endpoint: mean survival time, dose: 4.0 mg/kg/injection, schedule: Q01DX009 (ip), vehicle: saline): 111 % of control and 113 % of control | T/C (endpoint: mean survival time, dose: 7.0 mg/kg/injection, schedule: Q01DX Z (oral), vehicle: carboxymethylcellulose (CMC)): 194 % of control | T/C (endpoint: mean survival time, dose: 7.2 mg/kg/injection, schedule: Q01DX001 (ip), vehicle: saline): 265 % of control and 303 % of control | T/C (endpoint: mean survival time, dose: 14.0 mg/kg/injection, schedule: Q01DX Z (oral), vehicle: carboxymethylcellulose (CMC)): 111 % of control | T/C (endpoint: mean survival time, dose: 25.0 micrograms/kg/injection, schedule: Q01DX Z (oral), vehicle: steriod suspending solution): 101 % of control | T/C (endpoint: mean survival time, dose: 50.0 micrograms/kg/injection, schedule: Q01DX Z (oral), vehicle: steriod suspending solution): 104 % of control | T/C (endpoint: mean survival time, dose: 100.0 micrograms/kg/injection, schedule: Q01DX Z (oral), vehicle: steriod suspending solution): 115 % of control | T/C (endpoint: mean survival time, dose: 110.0 micrograms/kg/injection, schedule: Q01DX Z (sc), vehicle: steriod suspending solution): 102 % of control | T/C (endpoint: mean survival time, dose: 200.0 micrograms/kg/injection, schedule: Q01DX Z (oral), vehicle: steriod suspending solution): 165 % of control | T/C (endpoint: mean survival time, dose: 220.0 micrograms/kg/injection, schedule: Q01DX Z (sc), vehicle: steriod suspending solution): 105 % of control | T/C (endpoint: mean survival time, dose: 450.0 micrograms/kg/injection, schedule: Q01DX Z (sc), vehicle: steriod suspending solution): 124 % of control | T/C (endpoint: median survival time, dose: 0.5 mg/kg/injection, schedule: Q01DX009 (ip), vehicle: saline): 162 % of control | T/C (endpoint: median survival time, dose: 1.0 mg/kg/injection, schedule: Q01DX009 (ip), vehicle: saline): 206 % of control | T/C (endpoint: median survival time, dose: 2.0 mg/kg/injection, schedule: Q01DX009 (ip), vehicle: saline): 181 % of control | T/C (endpoint: median survival time, dose: 4.0 mg/kg/injection, schedule: Q01DX009 (ip), vehicle: saline): 112 % of control

CC1CCN(S(=O)(=O)c2ccc(Cl)cc2)CC1
T/C [1]: 102 % of control | T/C [2]: 97 % of control | T/C [3]: 97 % of control

O=[N+]([O-])c1c(Cl)cc(Cl)c([N+](=O)[O-])c1Cl
T/C [4]: 94 % of control | T/C [5]: 90 % of control | T/C (endpoint: mean survival time, dose: 400.0 mg/kg/injection, schedule: Q04DX003 (ip), vehicle: Klucel (hydroxypropylcellulose) (HPC)): 94 % of control

CCCCCCCCCCC(=O)N1CCCCCC1
T/C (endpoint: mean survival time, dose: 50.0 mg/kg/injection, schedule: Q04DX002 (ip), vehicle: Klucel (hydroxypropylcellulose) (HPC)): 100 % of control | T/C (endpoint: mean survival time, dose: 100.0 mg/kg/injection, schedule: Q04DX002 (ip), vehicle: Klucel (hydroxypropylcellulose) (HPC)): 100 % of control | T/C (endpoint: mean survival time, dose: 200.0 mg/kg/injection, schedule: Q04DX002 (ip), vehicle: Klucel (hydroxypropylcellulose) (HPC)): 95 % of control

CCCCCCCCOc1ccc(C)cc1
T/C [1]: 107 % of control | T/C [2]: 94 % of control | T/C [3]: 97 % of control

Nc1ccc(Cc2ccc(N)c(Br)c2)cc1Br
T/C (endpoint: mean survival time, dose: 50.0 mg/kg/injection, schedule: Q01DX009 (ip), vehicle: saline): 102 % of control | T/C [6]: 93 % of control | T/C (endpoint: mean survival time, dose: 100.0 mg/kg/injection, schedule: Q01DX009 (ip), vehicle: saline): 98 % of control | T/C [7]: 98 % of control

N=C(N)SCc1ccc([N+](=O)[O-])cc1
T/C [6]: 103 % of control | T/C [7]: 97 % of control

CC(C)(C)NC(=O)CCC(=O)O
T/C (endpoint: mean survival time, dose: 75.0 mg/kg/injection, schedule: Q04DX002 (ip), vehicle: Klucel (hydroxypropylcellulose) (HPC)): 89 % of control | T/C (endpoint: mean survival time, dose: 150.0 mg/kg/injection, schedule: Q04DX002 (ip), vehicle: Klucel (hydroxypropylcellulose) (HPC)): 92 % of control | T/C (endpoint: mean survival time, dose: 300.0 mg/kg/injection, schedule: Q04DX002 (ip), vehicle: Klucel (hydroxypropylcellulose) (HPC)): 100 % of control

CCCCCCCC/C=C\CCCCCCCC(=O)OCC#CCOC(=O)CCCCCCC/C=C/CCCCCCCC
T/C (endpoint: mean survival time, dose: 100.0 mg/kg/injection, schedule: Q01DX001 (ip), vehicle: saline with Tween-80): 94 % of control | T/C (endpoint: mean survival time, dose: 100.0 mg/kg/injection, schedule: Q01DX009 (ip), vehicle: saline with Tween-80): 95 % of control and 101 % of control | T/C (endpoint: mean survival time, dose: 100.0 mg/kg/injection, schedule: Q04DX002 (ip), vehicle: saline with Tween-80): 97 % of control and 102 % of control | T/C (endpoint: mean survival time, dose: 200.0 mg/kg/injection, schedule: Q01DX001 (ip), vehicle: saline with Tween-80): 91 % of control | T/C (endpoint: mean survival time, dose: 200.0 mg/kg/injection, schedule: Q01DX009 (ip), vehicle: saline with Tween-80): 93 % of control and 94 % of control | T/C (endpoint: mean survival time, dose: 200.0 mg/kg/injection, schedule: Q04DX002 (ip), vehicle: saline with Tween-80): 97 % of control and 104 % of control | T/C (endpoint: mean survival time, dose: 400.0 mg/kg/injection, schedule: Q01DX001 (ip), vehicle: saline with Tween-80): 94 % of control | T/C (endpoint: mean survival time, dose: 400.0 mg/kg/injection, schedule: Q01DX009 (ip), vehicle: saline with Tween-80): 95 % of control and 97 % of control | T/C (endpoint: mean survival time, dose: 400.0 mg/kg/injection, schedule: Q04DX002 (ip), vehicle: saline with Tween-80): 96 % of control and 108 % of control

CC(=O)Nc1ccc(NC(=S)Nc2ccc(NC(C)=O)cc2)cc1
T/C (endpoint: mean survival time, dose: 50.0 mg/kg/injection, schedule: Q01DX009 (ip), vehicle: Klucel (hydroxypropylcellulose) (HPC)): 101 % of control | T/C [1]: 104 % of control | T/C [4]: 97 % of control | T/C [5]: 93 % of control
